Reference: PubChem BioAssay (NCI)
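Step 1: Grow cells in 96-well plates. Step 2: Expose to compound for 48 hours at 5 concentrations. Step 3: Interpolate endpoints linearly; if unreached, use highest concentration. The concentration for 50% growth inhibition is given as GI50. At the TGI there is no net growth.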

Assays:
Assay in all cases: growth of human tumour cells (NCI), 48 h
HCT-15 colon = test system: HCT-15 colon
MOLT-4 leukemia = test system: MOLT-4 leukemia
NCI-H23 lung = test system: NCI-H23 lung
OVCAR-5 ovarian = test system: OVCAR-5 ovarian
SF-295 CNS = test system: SF-295 CNS
SK-MEL-2 melanoma = test system: SK-MEL-2 melanoma
SN12C renal = test system: SN12C renal
NCI-H460 lung = test system: NCI-H460 lung
T-47D breast = test system: T-47D breast
HCT-116 colon = test system: HCT-116 colon

SMILES	TGI (HCT-15 colon) [µM]	TGI (MOLT-4 leukemia) [µM]	TGI (NCI-H23 lung) [µM]	TGI (OVCAR-5 ovarian) [µM]	TGI (SF-295 CNS) [µM]	TGI (SK-MEL-2 melanoma) [µM]	TGI (SN12C renal) [µM]	GI50 (MOLT-4 leukemia) [µM]	GI50 (NCI-H23 lung) [µM]	GI50 (NCI-H460 lung) [µM]	TGI (NCI-H460 lung) [µM]	GI50 (SF-295 CNS) [µM]	GI50 (SK-MEL-2 melanoma) [µM]	GI50 (SN12C renal) [µM]	GI50 (T-47D breast) [µM]	TGI (T-47D breast) [µM]	TGI (HCT-116 colon) [µM]	GI50 (HCT-116 colon) [µM]	GI50 (HCT-15 colon) [µM]	GI50 (OVCAR-5 ovarian) [µM]
Cc1cc(N(CCC#N)CCC#N)ccc1N=Nc1ccc(S(N)(=O)=O)cc1	> 100	> 100	> 100	> 100	> 100	> 100	> 100													
COc1cnc2c(c1)C(=O)c1c-2n(CCCN2CCOCC2)c(=O)c2cc(F)ccc12		0.637	1.84		0.864	5.18	> 100	0.106	0.284	0.0573	0.487	0.141	1.67	0.32	0.118	0.69				
CNC(=S)OCCC(C)CCCC(C)C (stereo not drawn)	27.9	27.1	36.6	23.9	36	26.7	30.3				35.2						30.7			
NC(=O)NO.O.O.O.O.O.O.O.O.O.O.O.[Ge].[Ge].[Ge].[Ge].[Ge].[O]=[Ge].[O]=[Ge].[O]=[Ge].[O]=[Ge].[O]=[Ge][OH]	> 100	> 100	> 100	> 100	> 100	> 100	> 100				> 100						> 100			
CCCCCCCCCCCC(=O)OCCOCCOCCOCCOCCOCc1ccccc1	> 100	> 100	> 100	> 100	> 100	> 100	> 100				> 100						> 100			
COc1cc2c(cc1OCCCCN1CCN(CC(=O)Nc3ccc(Cl)cc3C(=O)c3ccccc3Cl)CC1)N=CC1CCCN1C2=O (stereo not drawn)	2.3	0.512	0.446	0.939	0.509	0.869	1.14	0.209	0.206	0.228	0.517	0.237	0.288	0.297			0.664	0.225	0.923	0.324
CCN(CC)CCSc1c2ccccc2nc2cc(NCC(=O)Nc3ccccc3-c3ccccc3NC(=O)CNc3ccc4c(SCCN(CC)CC)c5ccccc5nc4c3)ccc12	> 100	> 76.9	> 100	> 100	> 100	> 100	> 100				> 100						> 100			
O=C(CCc1nc(=S)[nH][nH]1)Nc1cc(Cl)c(Cl)cc1Cl	> 100	> 100	> 100	> 100	> 100	> 100	> 100				> 100						> 100			
Cc1c(C(=O)CC(=O)C(=O)Nc2ccccc2C(F)(F)F)[n+](=O)c2ccccc2n1[O-]	44.4		44.3	65.9	> 100	48.3	54.4				69.4						28.3			
C[N+](C)(C)CC(=O)N/N=C(/CC(=O)CC(C1=C(O)c2ccccc2OC1)c1ccccc1)C(=O)Nc1cccc(Cl)c1 (stereo not drawn)	> 100	> 100	> 100	> 100	> 100	> 100	> 100									> 100	> 100			
C=CCO[C@H]1CO[C@H]2[C@@H]1OC[C@@H]2Oc1ccc(Nc2ccnc(Nc3ccc(O[C@H]4CO[C@H]5[C@@H]4OC[C@@H]5OCC=C)c(Cl)c3)n2)cc1Cl	3.06		3.71	3.29	3.49	5.31	3.33		1.79	1.76	3.35	1.85	2.29	1.68			3.44	1.82	1.48	1.83
CC(C)=CCC\C(C)=C/C=C/C(C)=C\C=C\C(C)=C/C=C/C=C(C)\C=C\C=C(C)/C=C/C=C(/C)CCC=C(C)C	> 100	> 100		> 100	> 100	> 100	> 100										> 100			
COc1ccccc1N1C(=O)C2c3[nH]c4ccccc4c3C3CCC(C(C)(C)C)CC3C2C1=O (stereo not drawn)	> 100	> 100	> 100		> 100		> 100										> 100			
Cc1ccc(S(=O)(=O)OC[C@@H]2CO2)cc1	> 100	> 100	> 100	> 100		> 100	> 100				> 100						> 100			
Nc1ccccc1S(=O)(=O)N(CC(=O)O)c1ccccc1	> 100	> 100	> 100	> 100		> 100	> 100				> 100									
CC1CCc2nc[nH]c(=O)c21 (stereo not drawn)	> 100	> 100	> 100	> 100		> 100	> 100	> 100	> 100	> 100	> 100		> 100	> 100	> 100	> 100	> 100	> 100	> 100	> 100
NC1=NCCC1(c1ccccc1)c1ccccn1 (stereo not drawn)	> 100	> 100	> 100	> 100	> 100	> 100	> 100				> 100						> 100			
NS(=O)(=O)c1ccc2c(c1)OCCOCCOCCOCCO2	> 100	> 100	> 100		> 100		> 100				> 100					> 100	> 100			
OCC1=CC(NC2CC(CO)C(O)C(O)C2O)C(O)C(O)C1O (stereo not drawn)	> 100	> 100	> 100		> 100		> 100				> 100						> 100			
CCOC(=O)CCC1(C(=O)OCC)CCCCC1=O (stereo not drawn)		> 100	> 100	> 100	> 100	> 100					> 100						> 100			
CN(C)N=Nc1ccc(C(N)=O)cc1	> 100	> 100	> 100	> 100	> 100	> 100	> 100				> 100						> 100			
